Test results published in ChEMBL document CHEMBL3885861, “Open TG-GATES”.

Species: Rattus norvegicus
Test: Open TG-GATES - Regimen: Single
Assay type: toxicity, organism-based, Sprague-Dawley
Parameters: regimen Single, gender Male, age 6 weeks
Settings: in vivo, iv, route intravenous injection; for APTT / Bas / Eos / Fbg / Hb / Ht / Lym / MCH / MCHC / MCV / Mono / PT / Plat / RBC / Ret / WBC: tissue Blood; for KIDNEY_L / KIDNEY_R / KIDNEY_TOTAL: tissue Kidney; for LIVER: tissue Liver; for ALP / ALT / AST / BUN / CRE / Ca / Cl / DBIL / GLC / IP / K / LDH / Na / PL / RALB / TBIL / TC / TG / TP / gamma-GTP: tissue Plasma
[1] = 0 mg/kg, 3 h, dose level Control
[2] = 0 mg/kg, 6 h, dose level Control
[3] = 0 mg/kg, 9 h, dose level Control
[4] = 0 mg/kg, 24 h, dose level Control
[5] = 300 mg/kg, 24 h, dose level Low

## CC(=O)OCC1=C(C(=O)O)N2C(=O)[C@@H](NC(=O)Cc3cccs3)[C@H]2SC1 [CEPHALOTHIN]
[1]
  TERMINAL_BW: 214.5 g
  APTT: 22.3 s
  Bas: 0%
  Eos: 0.8%
  Fbg: 274.6 mg/dL
  Hb: 13.2 g/dL
  Ht: 38.5%
  Lym: 80%
  MCH: 20.9 pg
  MCHC: 34.2%
  MCV: 61.2 fL
  Mono: 2.8%
  PT: 16.5 s
  Plat: 124.3 x10_4/uL
  RBC: 629.6 x10_4/ul
  Ret: 6.1%
  WBC: 84.8 x10_2/uL
  KIDNEY_L: 1 g
  KIDNEY_R: 1 g
  KIDNEY_TOTAL: 2 g
  LIVER: 10.2 g
  ALP: 1573.2 IU/L
  ALT: 46.4 IU/L
  AST: 85.6 IU/L
  BUN: 12.4 mg/dL
  CRE: 0.2 mg/dL
  Ca: 10.5 mg/dL
  Cl: 107.4 meq/L
  DBIL: 0 mg/dL
  GLC: 176.2 mg/dL
  IP: 7.6 mg/dL
  K: 4.3 meq/L
  LDH: 171.6 IU/L
  Na: 142 meq/L
  PL: 117.2 mg/dL
  RALB: 2.8 g/dL
  TBIL: 0.016 mg/dL
  TC: 60.8 mg/dL
  TG: 69.2 mg/dL
  TP: 5.1 g/dL
  gamma-GTP: 1 IU/L
[2]
  TERMINAL_BW: 214.9 g
  APTT: 22.2 s
  Bas: 0%
  Eos: 0.8%
  Fbg: 279.4 mg/dL
  Hb: 13.1 g/dL
  Ht: 38.1%
  Lym: 74.2%
  MCH: 21.1 pg
  MCHC: 34.3%
  MCV: 61.7 fL
  Mono: 2.4%
  PT: 16.2 s
  Plat: 129.1 x10_4/uL
  RBC: 618.8 x10_4/ul
  Ret: 6.4%
  WBC: 81.7 x10_2/uL
  KIDNEY_L: 1 g
  KIDNEY_R: 1 g
  KIDNEY_TOTAL: 2 g
  LIVER: 9.1 g
  ALP: 1313 IU/L
  ALT: 41.6 IU/L
  AST: 80 IU/L
  BUN: 9.2 mg/dL
  CRE: 0.2 mg/dL
  Ca: 10.2 mg/dL
  Cl: 105.4 meq/L
  DBIL: 0.002 mg/dL
  GLC: 184.8 mg/dL
  IP: 9.3 mg/dL
  K: 4.3 meq/L
  LDH: 176.2 IU/L
  Na: 141.4 meq/L
  PL: 122 mg/dL
  RALB: 2.8 g/dL
  TBIL: 0.02 mg/dL
  TC: 67.8 mg/dL
  TG: 41 mg/dL
  TP: 5.1 g/dL
  gamma-GTP: 1.4 IU/L
[3]
  TERMINAL_BW: 217.3 g
  APTT: 23.9 s
  Bas: 0%
  Eos: 1%
  Fbg: 305.4 mg/dL
  Hb: 13.5 g/dL
  Ht: 39.5%
  Lym: 81.4%
  MCH: 21 pg
  MCHC: 34%
  MCV: 61.6 fL
  Mono: 2%
  PT: 15.7 s
  Plat: 132.6 x10_4/uL
  RBC: 641.6 x10_4/ul
  Ret: 6.4%
  WBC: 93.1 x10_2/uL
  KIDNEY_L: 0.9 g
  KIDNEY_R: 1 g
  KIDNEY_TOTAL: 1.9 g
  LIVER: 9 g
  ALP: 1321.4 IU/L
  ALT: 37.2 IU/L
  AST: 81.2 IU/L
  BUN: 9.2 mg/dL
  CRE: 0.2 mg/dL
  Ca: 10.4 mg/dL
  Cl: 106.2 meq/L
  DBIL: 0 mg/dL
  GLC: 186.6 mg/dL
  IP: 9.6 mg/dL
  K: 4.3 meq/L
  LDH: 157.4 IU/L
  Na: 141.6 meq/L
  PL: 121.8 mg/dL
  RALB: 2.9 g/dL
  TBIL: 0.022 mg/dL
  TC: 67.4 mg/dL
  TG: 60 mg/dL
  TP: 5.3 g/dL
  gamma-GTP: 1.2 IU/L
[4]
  TERMINAL_BW: 225.8 g
  APTT: 21 s
  Bas: 0%
  Eos: 0.8%
  Fbg: 302.4 mg/dL
  Hb: 12.9 g/dL
  Ht: 37.9%
  Lym: 79.2%
  MCH: 21.2 pg
  MCHC: 33.9%
  MCV: 62.3 fL
  Mono: 2.4%
  PT: 16.5 s
  Plat: 128.1 x10_4/uL
  RBC: 607.2 x10_4/ul
  Ret: 6.3%
  WBC: 89.6 x10_2/uL
  KIDNEY_L: 1 g
  KIDNEY_R: 1 g
  KIDNEY_TOTAL: 1.9 g
  LIVER: 10.8 g
  ALP: 1398.6 IU/L
  ALT: 44.4 IU/L
  AST: 76.2 IU/L
  BUN: 17.2 mg/dL
  CRE: 0.2 mg/dL
  Ca: 10.9 mg/dL
  Cl: 105.8 meq/L
  DBIL: 0 mg/dL
  GLC: 189.4 mg/dL
  IP: 7.3 mg/dL
  K: 4.5 meq/L
  LDH: 221 IU/L
  Na: 142.4 meq/L
  PL: 145.8 mg/dL
  RALB: 3 g/dL
  TBIL: 0.012 mg/dL
  TC: 74.4 mg/dL
  TG: 74.6 mg/dL
  TP: 5.5 g/dL
  gamma-GTP: 1.4 IU/L
300 mg/kg, 3 h, dose level Low
  TERMINAL_BW: 215.7 g
  APTT: 21.9 s
  Bas: 0%
  Eos: 0.6%
  Fbg: 294.6 mg/dL
  Hb: 13 g/dL
  Ht: 38.4%
  Lym: 75.4%
  MCH: 21.3 pg
  MCHC: 33.8%
  MCV: 62.9 fL
  Mono: 2.6%
  PT: 16.4 s
  Plat: 128.8 x10_4/uL
  RBC: 611.6 x10_4/ul
  Ret: 6.6%
  WBC: 98.3 x10_2/uL
  KIDNEY_L: 0.9 g
  KIDNEY_R: 1 g
  KIDNEY_TOTAL: 1.9 g
  LIVER: 9.8 g
  ALP: 1407.8 IU/L
  ALT: 49.8 IU/L
  AST: 87.8 IU/L
  BUN: 12.4 mg/dL
  CRE: 0.2 mg/dL
  Ca: 10.5 mg/dL
  Cl: 105.8 meq/L
  DBIL: 0 mg/dL
  GLC: 179 mg/dL
  IP: 7.8 mg/dL
  K: 4.1 meq/L
  LDH: 204.4 IU/L
  Na: 142.4 meq/L
  PL: 135.2 mg/dL
  RALB: 2.8 g/dL
  TBIL: 0.016 mg/dL
  TC: 69.2 mg/dL
  TG: 92 mg/dL
  TP: 5.2 g/dL
  gamma-GTP: 1.4 IU/L
300 mg/kg, 6 h, dose level Low
  TERMINAL_BW: 208.2 g
  APTT: 22.7 s
  Bas: 0%
  Eos: 0.8%
  Fbg: 278.6 mg/dL
  Hb: 13.4 g/dL
  Ht: 38.9%
  Lym: 78%
  MCH: 21.3 pg
  MCHC: 34.4%
  MCV: 62 fL
  Mono: 2.6%
  PT: 16 s
  Plat: 118.3 x10_4/uL
  RBC: 627.2 x10_4/ul
  Ret: 5.9%
  WBC: 75.8 x10_2/uL
  KIDNEY_L: 0.9 g
  KIDNEY_R: 0.9 g
  KIDNEY_TOTAL: 1.9 g
  LIVER: 8.9 g
  ALP: 1320.4 IU/L
  ALT: 36.8 IU/L
  AST: 78.4 IU/L
  BUN: 9.6 mg/dL
  CRE: 0.2 mg/dL
  Ca: 10.3 mg/dL
  Cl: 105.6 meq/L
  DBIL: 0 mg/dL
  GLC: 171.6 mg/dL
  IP: 9 mg/dL
  K: 4.1 meq/L
  LDH: 162.4 IU/L
  Na: 141.6 meq/L
  PL: 125.4 mg/dL
  RALB: 2.9 g/dL
  TBIL: 0.022 mg/dL
  TC: 66.4 mg/dL
  TG: 75.2 mg/dL
  TP: 5.3 g/dL
  gamma-GTP: 1 IU/L
300 mg/kg, 9 h, dose level Low
  TERMINAL_BW: 211.4 g
  APTT: 24.2 s
  Bas: 0%
  Eos: 1%
  Fbg: 284 mg/dL
  Hb: 13.2 g/dL
  Ht: 38.6%
  Lym: 81.2%
  MCH: 21.3 pg
  MCHC: 34.1%
  MCV: 62.3 fL
  Mono: 2%
  PT: 16.1 s
  Plat: 135 x10_4/uL
  RBC: 619.6 x10_4/ul
  Ret: 6.4%
  WBC: 77.3 x10_2/uL
  KIDNEY_L: 1 g
  KIDNEY_R: 1 g
  KIDNEY_TOTAL: 1.9 g
  LIVER: 8.6 g
  ALP: 1157.8 IU/L
  ALT: 34.2 IU/L
  AST: 69 IU/L
  BUN: 10 mg/dL
  CRE: 0.1 mg/dL
  Ca: 10.4 mg/dL
  Cl: 106.2 meq/L
  DBIL: 0 mg/dL
  GLC: 180.8 mg/dL
  IP: 9.6 mg/dL
  K: 4.5 meq/L
  LDH: 128.6 IU/L
  Na: 141 meq/L
  PL: 115.8 mg/dL
  RALB: 2.8 g/dL
  TBIL: 0.02 mg/dL
  TC: 60.6 mg/dL
  TG: 71.2 mg/dL
  TP: 5.1 g/dL
  gamma-GTP: 1.4 IU/L
[5]
  TERMINAL_BW: 226.1 g
  APTT: 22 s
  Bas: 0%
  Eos: 0.8%
  Fbg: 303.8 mg/dL
  Hb: 13.2 g/dL
  Ht: 38.9%
  Lym: 81%
  MCH: 20.6 pg
  MCHC: 34%
  MCV: 60.4 fL
  Mono: 2.2%
  PT: 16.7 s
  Plat: 120 x10_4/uL
  RBC: 645.2 x10_4/ul
  Ret: 6%
  WBC: 89.2 x10_2/uL
  KIDNEY_L: 1 g
  KIDNEY_R: 1 g
  KIDNEY_TOTAL: 2 g
  LIVER: 10.2 g
  ALP: 1605.2 IU/L
  ALT: 53 IU/L
  AST: 77.6 IU/L
  BUN: 17 mg/dL
  CRE: 0.2 mg/dL
  Ca: 10.6 mg/dL
  Cl: 105.8 meq/L
  DBIL: 0 mg/dL
  GLC: 184.4 mg/dL
  IP: 7.2 mg/dL
  K: 4.3 meq/L
  LDH: 171.6 IU/L
  Na: 142.4 meq/L
  PL: 135.6 mg/dL
  RALB: 2.9 g/dL
  TBIL: 0.016 mg/dL
  TC: 70.6 mg/dL
  TG: 90 mg/dL
  TP: 5.4 g/dL
  gamma-GTP: 2 IU/L
